Target: SsTyrH (heme-dependent L-tyrosine hydroxylase)
Experiment: UV–vis substrate titration
Assay type: binding, Streptomyces sclerotialus

N[C@@H](Cc1ccc(O)cc1)C(=O)O [Tyr, L-tyrosine]
Kd: 109 ± 5 µM
